Source: US20240024308A1, “TLR7/8 ANTAGONISTS FOR THE TREATMENT OF CORONAVIRUS INFECTIONS” (Merck Healthcare KGaA, priority 2020, published 2024)

Legend:
PBMCs = PBMCs stimulated with GU-rich RNA oligonucleotides, cytokines by AlphaLISA; assay type: cell-based, human; details: RNA oligonucleotides 26 μg/ml, overnight; for concentration of IFN-alpha after stimulation: FIG. 7A; for concentration of IL-6 after stimulation: FIG. 7B; for concentration of TNF-alpha after stimulation: FIG. 7C
Method: Blood was drawn from healthy donors and PBMCs isolated using gradient centrifugation. PBMCs were dispensed into 96-well plates and M5049 dilutions were added in triplicate to selected wells. Plates were incubated at 37° C. and 5% CO2 for 30 minutes. Then, RNA oligonucleotides were added to the cells at a concentration of 26 μg/ml for stimulation. The treated PBMCs were incubated overnight at 37° C. and 5% CO2, and IFNa, TNFa and IL-6 in the supernatant were measured the next day by AlphaLISA.

TLR7 = target: T1, TLR7 (Homo sapiens, UniProt Q9NYK1); experiment: Whole blood assay, stimulation with TLR7 selective agonist; assay type: cell-based; details: for IFNα and IL-6 production: challenged with the TLR-7 agonist
T1 construct: Blood was drawn from healthy donors into Vacutainer tubes with EDTA; endogenous in cells; host or cells: human whole blood (healthy donors)
T1 sequence (Q9NYK1 27-1049): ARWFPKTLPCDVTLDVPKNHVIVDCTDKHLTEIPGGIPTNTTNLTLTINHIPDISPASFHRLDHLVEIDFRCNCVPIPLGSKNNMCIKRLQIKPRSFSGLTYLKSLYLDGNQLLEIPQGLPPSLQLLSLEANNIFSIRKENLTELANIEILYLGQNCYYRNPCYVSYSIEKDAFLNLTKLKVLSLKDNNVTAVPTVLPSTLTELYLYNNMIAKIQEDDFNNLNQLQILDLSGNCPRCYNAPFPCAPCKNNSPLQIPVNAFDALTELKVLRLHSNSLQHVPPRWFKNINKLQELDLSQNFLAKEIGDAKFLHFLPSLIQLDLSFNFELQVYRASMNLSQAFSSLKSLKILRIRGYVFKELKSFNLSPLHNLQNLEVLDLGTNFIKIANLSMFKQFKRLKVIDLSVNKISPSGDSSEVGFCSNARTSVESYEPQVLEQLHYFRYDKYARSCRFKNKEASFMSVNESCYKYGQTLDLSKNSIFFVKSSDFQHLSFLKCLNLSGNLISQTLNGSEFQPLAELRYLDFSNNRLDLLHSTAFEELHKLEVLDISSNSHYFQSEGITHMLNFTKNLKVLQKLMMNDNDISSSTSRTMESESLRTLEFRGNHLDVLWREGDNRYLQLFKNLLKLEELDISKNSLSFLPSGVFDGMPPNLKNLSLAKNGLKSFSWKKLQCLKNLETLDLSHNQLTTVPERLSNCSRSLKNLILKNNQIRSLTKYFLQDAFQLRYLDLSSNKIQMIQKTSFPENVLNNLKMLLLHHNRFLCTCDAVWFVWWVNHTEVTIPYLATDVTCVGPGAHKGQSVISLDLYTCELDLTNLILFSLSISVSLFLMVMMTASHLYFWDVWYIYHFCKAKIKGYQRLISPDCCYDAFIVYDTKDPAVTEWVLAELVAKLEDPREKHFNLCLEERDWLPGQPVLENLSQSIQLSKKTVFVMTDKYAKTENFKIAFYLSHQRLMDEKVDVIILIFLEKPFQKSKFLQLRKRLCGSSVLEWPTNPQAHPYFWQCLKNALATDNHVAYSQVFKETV
Method: (§1) Whole blood assay: Blood was drawn from healthy donors into Vacutainer tubes with EDTA (BD Biosciences) and assay was performed within 2 hr. Four parts blood were diluted with one part PBS and 150 μl/well was dispensed into 96-well plates. Compound dilutions were added in triplicate and plates were incubated at 37° C. 5% CO2 for 30 min. For TLR7/8 testing, R848 (resiquimod) was added to 1 μM, for TLR7, the TLR7 selective agonist shown below was added to 3 μM and for TLR8, the TLR8 selective agonist shown below was added to 0.5 μM. Plates were incubated overnight 37° C. 5% CO2 and cytokines were measured in the plasma by AlphaLISA.
(§2) IL-6, TNF-alpha and IFN-alpha were measured in plasma 16 h later.
The TLR 7 agonist used in the above experiment was: […]

TLR7/8 [1] = experiment: Whole blood assay, stimulation with TLR7/8 agonist R848 (resiquimod); assay type: cell-based, human; details: challenged with TLR7/8 agonist R848
Method: as §1, §2

TLR7 and TLR8 = experiment: Phase I healthy volunteer study, ex vivo-stimulated cytokine secretion; assay type: in vivo, human; details: exposure-dependent manner
BXSB-Yaa mice = experiment: BXSB-Yaa mouse lupus model
TLR8 = target: T2, TLR8 (Homo sapiens, UniProt Q9NR97); experiment: Whole blood assay, stimulation with TLR8 selective agonist; assay type: cell-based; details: for IFNα and IL-6 production: challenged with the TLR-8 agonist
T2 construct: Blood was drawn from healthy donors into Vacutainer tubes with EDTA; endogenous in cells; host or cells: human whole blood (healthy donors)
T2 sequence (Q9NR97 27-1041): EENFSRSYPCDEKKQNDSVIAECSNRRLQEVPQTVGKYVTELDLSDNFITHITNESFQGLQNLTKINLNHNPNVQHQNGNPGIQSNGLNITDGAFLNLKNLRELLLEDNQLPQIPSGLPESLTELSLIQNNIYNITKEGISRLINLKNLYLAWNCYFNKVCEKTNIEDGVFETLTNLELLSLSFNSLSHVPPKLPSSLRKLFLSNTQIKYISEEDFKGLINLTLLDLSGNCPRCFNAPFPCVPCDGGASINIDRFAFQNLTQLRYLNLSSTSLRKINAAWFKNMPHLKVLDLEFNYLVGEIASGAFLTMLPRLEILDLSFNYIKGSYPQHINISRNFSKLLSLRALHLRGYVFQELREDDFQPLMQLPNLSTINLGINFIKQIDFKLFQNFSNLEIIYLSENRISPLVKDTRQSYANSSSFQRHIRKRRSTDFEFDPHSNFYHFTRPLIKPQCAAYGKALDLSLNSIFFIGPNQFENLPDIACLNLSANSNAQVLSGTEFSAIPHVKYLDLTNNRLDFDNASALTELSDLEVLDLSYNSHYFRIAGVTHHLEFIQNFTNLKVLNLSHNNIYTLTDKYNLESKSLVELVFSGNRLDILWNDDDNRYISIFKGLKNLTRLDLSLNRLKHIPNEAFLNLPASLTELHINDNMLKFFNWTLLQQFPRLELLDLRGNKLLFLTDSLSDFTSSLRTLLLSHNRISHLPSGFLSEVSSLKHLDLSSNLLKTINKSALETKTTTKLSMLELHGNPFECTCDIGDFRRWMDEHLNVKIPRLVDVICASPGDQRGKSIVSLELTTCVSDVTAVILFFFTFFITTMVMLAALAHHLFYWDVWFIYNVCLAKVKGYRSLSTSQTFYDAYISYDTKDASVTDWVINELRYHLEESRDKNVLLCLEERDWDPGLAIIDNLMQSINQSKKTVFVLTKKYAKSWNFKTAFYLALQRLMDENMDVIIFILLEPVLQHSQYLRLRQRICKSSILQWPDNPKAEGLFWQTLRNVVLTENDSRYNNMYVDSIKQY
Method: as §1, §2

C57BL/6 mice = C57BL/6 mice dosed i.v. with miR-122, plasma cytokines and lung gene signatures; assay type: in vivo; details: for lung IFN gene signature score: FIG. 9A; for plasma levels of IFNα: 0.1, 1, 10 mg/kg p.o., P<0.0074 for all concentrations, FIG. 8A; for plasma levels of IFNα / plasma levels of IL-6: 4 hours after miR-122; for plasma levels of IL-6: p.o., P=0.0237 at 1 mg/kg, P=0.0147 at 10 mg/kg, FIG. 8B
Method: Healthy female C57BL/6 mice were dosed with vehicle (0.1 M Na citrate pH 3.0) or increasing doses (0.1, 1, 10 mg/kg) of M5049 p.o. After 30 min, mice were dosed with a single i.v. injection of 2 mg/kg miR-122 (Sigma) complexed with Invivofectamine (Life Technologies). At 4 hours after miRNA dosing, mice were euthanized and blood was collected for cytokine analysis in plasma and lungs were collected for gene expression analysis. IFN-α and IL-6 were measured in the plasma samples by Alphalisa (Perkin Elmer). Lungs were homogenized using the OctoMacs and M tubes (Qiagen) in RLT buffer and RNA was extracted using the RNEasy mini kit (Qiagen). Gene expression analysis was performed using a custom NanoString panel. Gene signature scores were determined by calculating the Log 2 fold change versus vehicle alone and then using the median Log 2 fold change for all genes on the signature as the signature score for each mouse. Genes used for the IFN gene signature were: OAS1, OAS2, OAS3, OASL, BST2, CMPK2, GBP5, HERC6, IFI44, IFIT1, IFIT2, IFIT3, IFIH1, CXCL10, ISG15, MX1, MX2, STAT1, TNFSF10, USP18, RSAD2, and IRF7. Genes used for the NF-kB gene signature were: IL1RN, TNFAIP3, CSF1, IRF1, IL1B, IL6, NFKBIA, PTGS2, TAP1, and TNF. […] Administration of miR-122 lead to an increase of both, the IFN and NFkB gene signature scores indicating local lung inflammation.

TLR7/8 [2] = experiment: Cytokine inhibition in mice challenged with TLR agonist

For `N#Cc1ccc(N2C[C@H](N)C[C@H](C(F)(F)F)C2)c2cccnc12` (single isomer, unassigned) [Compound 3], which “concentration of IFN-alpha after stimulation” value (PBMCs) is on record?
Its value is “significant reduction”.

What about the “concentration of IFN-alpha after stimulation” value (PBMCs; listed as M5049) of the same molecule?
The value was “significantly suppresses”.

And the “concentration of IL-6 after stimulation” value (PBMCs)?
Its value is “significant reduction”.

And the “concentration of IL-6 after stimulation” value (PBMCs; listed as M5049)?
Its value is “significantly suppresses”.

And the “concentration of TNF-alpha after stimulation” value (PBMCs)?
The value was “significant reduction”.

What about the “concentration of TNF-alpha after stimulation” value (PBMCs; listed as M5049) of the same molecule?
Its value is “significantly suppresses”.

What about the “IFNα and IL-6 production” value (TLR7) of the same molecule?
Its value is “dose-dependently decreases”.

What about the “production of IL-6 and TNF-alpha” value (TLR7; samples stimulated with TLR 7 agonist, vs. hydroxychloroquine, FIG. 2A) of the same molecule?
The value was “significantly reduces the amount of the cytokines”.

What about the “IFNα and IL-6 production” value (TLR7/8 [1]) of the same molecule?
The value was “dose-dependently decreases”.

What about the “secretion of ex vivo-stimulated cytokines including IL-6, TNFα, and IFNα” value (TLR7 and TLR8) of the same molecule?
The value was “suppressed”.

And the survival (BXSB-Yaa mice; BXSB-Yaa mice, once per day oral gavage, FIG. 3A)?
Its survival is “dose-dependent improvement in survival”.

And the “kidney disease (proteinuria)” value (BXSB-Yaa mice; BXSB-Yaa mice, oral gavage, FIG. 3B, 3C)?
Its value is “reduction in kidney disease”.

And the “type I IFN response (blood IFN gene signature score)” value (BXSB-Yaa mice; BXSB-Yaa mice, only seen at high doses, FIG. 3D)?
Its value is “inhibited”.

And the “disease in mouse lupus models” value (BXSB-Yaa mice; oral gavage)?
Its value is “reduces disease”.

What about the “IFNα and IL-6 production” value (TLR8) of the same molecule?
The value was “dose-dependently decreases”.

And the “production of IL-6 and TNF-alpha” value (TLR8; samples stimulated with TLR 8 agonist, vs. hydroxychloroquine, FIG. 2B)?
Its value is “significantly reduces the amount of the cytokines”.

And the “lung IFN gene signature score” value (C57BL/6 mice; 10 mg/kg)?
Its value is “complete reduction of IFN”.

What about the “plasma levels of IFNα” value (C57BL/6 mice) of the same molecule?
Its value is “reduction”.

What about the “plasma levels of IFNα” value (C57BL/6 mice; listed as M5049) of the same molecule?
The value was “significantly reduced”.

And the “lung IFN gene signature score” value (C57BL/6 mice; 1 and 10 mg/kg p.o., P<0.01)?
Its value is “reduced both gene signature scores”.

And the “lung NFkB gene signature score” value (C57BL/6 mice; 1 and 10 mg/kg p.o., P<0.01, FIG. 9B)?
The value was “reduced both gene signature scores”.

What about the “plasma levels of IL-6” value (C57BL/6 mice; 10 mg/kg) of the same molecule?
Its value is “reduction”.

What about the “plasma levels of IL-6” value (C57BL/6 mice; listed as M5049, 10 mg/kg) of the same molecule?
The value was “significantly reduced”.

And the IL-6 inhibition (TLR7/8 [2]; low doses (0.1 mg/kg))?
The IL-6 inhibition was 100%.

And the IFNα inhibition (TLR7/8 [2]; same concentration (0.1 mg/kg))?
The IFNα inhibition was “only partial”.

Which results are given for `COc1ncc(N2C[C@@H](C)C[C@@H](N)C2)c2cccnc12` [Compound 4, (3R,5S)-1-(8-Methoxy-[1,7]naphthyridin-5-yl)-5-methyl-piperidin-3-ylamine]?
IFNα and IL-6 production (TLR7): dose-dependently decreases; IFNα and IL-6 production (TLR7/8 [1]): dose-dependently decreases; IFNα and IL-6 production (TLR8): dose-dependently decreases
